Eight compounds from ChEMBL document CHEMBL1140771, “Heteroallyl-containing 5-nitrofuranes as new anti-Trypanosoma cruzi agents with a dual mechanism of action” (Bioorg Med Chem, 2008) can be followed below.

Each structure is given as a SMILES string. Values after ≈ are worked out from the molar mass of the structure shown. Bounds are passed on as bounds.

Assay [1] relates to Trypanosoma cruzi. In words: Inhibition of sterol biosynthesis in Trypanosoma cruzi EP epimastigotes assessed as exogenous cholesterol levels at 10 uM after 120 hrs. Type of assay: functional. The arrangement: scale not given: the % may be the effect or the level left.
For assay [2], the system named is Trypanosoma cruzi. In words: Antitrypanosomal activity against Trypanosoma cruzi EP epimastigotes after 96 hrs. Type of assay: functional.
The test system of assay [3] is Trypanosoma cruzi. In words: Inhibition of sterol biosynthesis in Trypanosoma cruzi EP epimastigotes assessed as endogenous squalene levels at 10 uM after 120 hrs. Type of assay: functional. The arrangement: scale not given: the % may be the effect or the level left.
Assay [4] has as its system Trypanosoma cruzi. In words: Effect on oxygen uptake in Trypanosoma cruzi Y epimastigotes assessed as rate of oxygen consumption at 80 uM relative to control. Type of assay: functional.
The test system of assay [5] is Trypanosoma cruzi. In words: Effect on oxygen uptake in Trypanosoma cruzi Y epimastigotes assessed as rate of oxygen consumption at 120 uM relative to control. Format: functional.
In assay [6] the test system is Trypanosoma cruzi. In words: Antitrypanosomal activity against Trypanosoma cruzi Y epimastigotes after 48 hrs by MTT assay. Format: functional, organism-based.
Another assay relates to Vero. In words: Cytotoxicity against african green monkey Vero cells. Type of assay: cell-based. Conditions: Chlorocebus sabaeus.
Assay [7] has as its system Trypanosoma cruzi. In words: Antitrypanosomal activity against Trypanosoma cruzi EP amastigotes in Vero cells after 96 hrs. Type of assay: functional.
Assay [8] relates to Trypanosoma cruzi. In words: Effect on oxygen redox cycling in Trypanosoma cruzi Y epimastigotes assessed as rate of oxygen consumption at 80 uM in presence of cyanide relative to control. Type of assay: functional.
Assay [9] concerns Trypanosoma cruzi. In words: Effect on oxygen redox cycling in Trypanosoma cruzi Y epimastigotes assessed as rate of oxygen consumption at 120 uM in presence of cyanide relative to control. Type of assay: functional.
Assay [10] has as its system Trypanosoma cruzi. In words: Antitrypanosomal activity against Trypanosoma cruzi EP amastigotes. Type of assay: functional, organism-based.
The subject of assay [11] is Trypanosoma cruzi. In words: Inhibition of sterol biosynthesis in Trypanosoma cruzi EP epimastigotes assessed as ergosterol levels at 30 uM after 120 hrs. Type of assay: functional. Set-up: scale not given: the % may be the effect or the level left.
For assay [12], the system named is Trypanosoma cruzi. In words: Inhibition of sterol biosynthesis in Trypanosoma cruzi EP epimastigotes assessed as ergosta-5,7-dien-3beta-ol levels at 30 uM after 120 hrs. Format: functional. The arrangement: scale not given: the % may be the effect or the level left.
Assay [13] deals with Trypanosoma cruzi. In words: Inhibition of sterol biosynthesis in Trypanosoma cruzi EP epimastigotes assessed as 24-ethyl-5,7,22-cholestatrien-3beta-ol levels at 30 uM after 120 hrs. Type of assay: functional. The arrangement: scale not given: the % may be the effect or the level left.
The subject of assay [14] is Trypanosoma cruzi. In words: Inhibition of sterol biosynthesis in Trypanosoma cruzi EP epimastigotes assessed as exogenous cholesterol levels at 30 uM after 120 hrs. Format: functional. Set-up: scale not given: the % may be the effect or the level left.
Assay [15] deals with Trypanosoma cruzi. In words: Inhibition of sterol biosynthesis in Trypanosoma cruzi EP epimastigotes assessed as ergosta-5,7-24(24')-trien-3beta-ol levels at 30 uM after 120 hrs. Type of assay: functional. Set-up: scale not given: the % may be the effect or the level left.
Assay [16] relates to Trypanosoma cruzi. In words: Inhibition of sterol biosynthesis in Trypanosoma cruzi EP epimastigotes assessed as endogenous squalene levels at 30 uM after 120 hrs. Type of assay: functional. Set-up: scale not given: the % may be the effect or the level left.
The test system of assay [17] is Trypanosoma cruzi. In words: Effect on oxygen uptake in Trypanosoma cruzi Y epimastigotes assessed as rate of oxygen consumption at 60 uM relative to control. Format: functional.
The subject of assay [18] is Trypanosoma cruzi. In words: Inhibition of sterol biosynthesis in Trypanosoma cruzi EP epimastigotes assessed as 24-ethyl-5,7,22-cholestatrien-3beta-ol levels at 3 uM after 120 hrs. Type of assay: functional. The arrangement: scale not given: the % may be the effect or the level left.
Assay [19] concerns Trypanosoma cruzi. In words: Inhibition of sterol biosynthesis in Trypanosoma cruzi EP epimastigotes assessed as ergosta-5,7-24(24')-trien-3beta-ol levels at 3 uM after 120 hrs. Type of assay: functional. Set-up: scale not given: the % may be the effect or the level left.
Assay [20] relates to Trypanosoma cruzi. In words: Inhibition of sterol biosynthesis in Trypanosoma cruzi EP epimastigotes assessed as ergosterol levels at 3 uM after 120 hrs. Type of assay: functional. The arrangement: scale not given: the % may be the effect or the level left.
Assay [21] has as its system Trypanosoma cruzi. In words: Inhibition of sterol biosynthesis in Trypanosoma cruzi EP epimastigotes assessed as endogenous squalene levels at 3 uM after 120 hrs. Type of assay: functional. The arrangement: scale not given: the % may be the effect or the level left.
Assay [22] has as its system Trypanosoma cruzi. In words: Inhibition of sterol biosynthesis in Trypanosoma cruzi EP epimastigotes assessed as 24-ethyl-5,7-cholestadien-3beta-ol levels at 3 uM after 120 hrs. Format: functional. Set-up: scale not given: the % may be the effect or the level left.
The subject of assay [23] is Trypanosoma cruzi. In words: Inhibition of sterol biosynthesis in Trypanosoma cruzi EP epimastigotes assessed as ergosterol levels at 10 uM after 120 hrs. Format: functional. The arrangement: scale not given: the % may be the effect or the level left.
Assay [24] deals with Trypanosoma cruzi. In words: Inhibition of sterol biosynthesis in Trypanosoma cruzi EP epimastigotes assessed as exogenous cholesterol levels at 3 uM after 120 hrs. Type of assay: functional. The arrangement: scale not given: the % may be the effect or the level left.
Assay [25] deals with Trypanosoma cruzi. In words: Effect on oxygen redox cycling in Trypanosoma cruzi Y epimastigotes assessed as rate of oxygen consumption at 60 uM in presence of cyanide relative to control. Format: functional.
In assay [26] the test system is Trypanosoma cruzi. In words: Inhibition of sterol biosynthesis in Trypanosoma cruzi EP epimastigotes assessed as ergosta-5,7-dien-3beta-ol levels at 3 uM after 120 hrs. The arrangement: scale not given: the % may be the effect or the level left. Type of assay: functional.
The test system of assay [27] is Trypanosoma cruzi. In words: Effect on oxygen uptake in Trypanosoma cruzi Y epimastigotes assessed as rate of oxygen consumption at 166 uM relative to control. Format: functional.
The subject of assay [28] is Trypanosoma cruzi. In words: Effect on oxygen redox cycling in Trypanosoma cruzi Y epimastigotes assessed as rate of oxygen consumption at 166 uM in presence of cyanide relative to control. Type of assay: functional.
The test system of assay [29] is Trypanosoma cruzi. In words: Inhibition of sterol biosynthesis in Trypanosoma cruzi EP epimastigotes assessed as 24-ethyl-5,7-cholestadien-3beta-ol levels at 10 uM after 120 hrs. Type of assay: functional. Set-up: scale not given: the % may be the effect or the level left.
In assay [30] the test system is Trypanosoma cruzi. In words: Inhibition of sterol biosynthesis in Trypanosoma cruzi EP epimastigotes assessed as ergosta-5,7-dien-3beta-ol levels at 10 uM after 120 hrs. Type of assay: functional. Set-up: scale not given: the % may be the effect or the level left.
Assay [31] concerns Trypanosoma cruzi. In words: Inhibition of sterol biosynthesis in Trypanosoma cruzi EP epimastigotes assessed as ergosta-5,7-24(24')-trien-3beta-ol levels at 10 uM after 120 hrs. Format: functional. The arrangement: scale not given: the % may be the effect or the level left.

The term MIC denotes the lowest concentration found to suppress growth. As usually defined, the IC50 is the concentration that gives 50% inhibition. Regarding `C=C(C)CNC(=O)N/N=C/c1ccc([N+](=O)[O-])o1`, the Activity in the assay with Trypanosoma cruzi [1] is on record as 31.9%; in the assay with Trypanosoma cruzi [3], 68.1%; with Trypanosoma cruzi [4], 110%; with Trypanosoma cruzi [5] it was 148%; in the assay with Trypanosoma cruzi [8] it was 33%; with Trypanosoma cruzi [9] it was 27%. Further, the MIC against Trypanosoma cruzi [2] and in the assay on Trypanosoma cruzi [7] was 10 µM (≈ 2.52 µg/mL) throughout. Besides, the values for the IC50 in the assay with Trypanosoma cruzi [6], with Vero and in the assay with Trypanosoma cruzi [10] were 3.8 µM, 32.1 µM and 0.9 µM, respectively.
Consider `C=CCOC(=O)N/N=C/C=C/c1ccc([N+](=O)[O-])o1`, for which the MIC against Trypanosoma cruzi [2] is more than 30 µM. Also, the Activity with Trypanosoma cruzi [11] came out at 15%; in the assay with Trypanosoma cruzi [12], 4.6%; with Trypanosoma cruzi [13] it was 10.6%; in the assay with Trypanosoma cruzi [14], 29.4%; in the assay with Trypanosoma cruzi [15], 4%; in the assay with Trypanosoma cruzi [16] it was 36.4%.
As for `O=C(N/N=C/c1ccc([N+](=O)[O-])o1)Oc1ccccc1`, the Activity came to 105% in the assay on Trypanosoma cruzi [17]; 35% in the assay with Trypanosoma cruzi [1]; 9% with Trypanosoma cruzi [18]; 2.4% with Trypanosoma cruzi [19]; 7.6% in the assay on Trypanosoma cruzi [20]; 60.6% with Trypanosoma cruzi [3]. For the same compound, the Activity was found to be 39.1% with Trypanosoma cruzi [21]; 3.6% in the assay with Trypanosoma cruzi [22]; 4.4% with Trypanosoma cruzi [23]; 32.3% with Trypanosoma cruzi [24]; 31% with Trypanosoma cruzi [25]; 6% in the assay on Trypanosoma cruzi [26]. The MIC came out at 10 µM (≈ 2.75 µg/mL) in the assay on Trypanosoma cruzi [2] and 30 µM (≈ 8.26 µg/mL) in the assay on Trypanosoma cruzi [7]. The values for the IC50 with Trypanosoma cruzi [6], in the assay with Vero and in the assay with Trypanosoma cruzi [10] were 10.6 µM, 19.4 µM and 2.3 µM, respectively.
On to `O=C(N/N=C/C=C/c1ccc([N+](=O)[O-])o1)Oc1ccccc1`, for which the Activity stood at 8.1% in the assay on Trypanosoma cruzi [1]; 88% in the assay on Trypanosoma cruzi [27]; 7.9% in the assay with Trypanosoma cruzi [20]; 91.9% in the assay on Trypanosoma cruzi [3]; 45.2% in the assay with Trypanosoma cruzi [21]; 46.9% in the assay on Trypanosoma cruzi [24]. Further, the Activity in the assay with Trypanosoma cruzi [28] was determined as 8%. Besides, the MIC with Trypanosoma cruzi [2] and against Trypanosoma cruzi [7] was 3 µM (≈ 0.904 µg/mL) each time. Moreover, the IC50 in the assay on Trypanosoma cruzi [6] came to 6.7 µM; in the assay on Vero, 9.1 µM; in the assay with Trypanosoma cruzi [10], 0.31 µM.
In the case of `C=C(C)CNC(=O)N/N=C/C=C/c1ccc([N+](=O)[O-])o1`, the Activity with Trypanosoma cruzi [1] was 9.2%; in the assay with Trypanosoma cruzi [18], 10.8%; with Trypanosoma cruzi [20] it was 18.4%; with Trypanosoma cruzi [3], 90.8%; with Trypanosoma cruzi [21], 44.4%; in the assay on Trypanosoma cruzi [24], 20.3%. Moreover, in the assay with Trypanosoma cruzi [26], the Activity came out at 6.1%. Also, the lowest concentration to inhibit growth in the assay with Trypanosoma cruzi [2] (MIC) was 10 µM (≈ 2.78 µg/mL).
As to `O=C(N/N=C/C=C/c1ccc([N+](=O)[O-])o1)OC/C=C/c1ccccc1`, the Activity in the assay with Trypanosoma cruzi [1] turned out to be 6.7%; with Trypanosoma cruzi [18], 16%; with Trypanosoma cruzi [19], 2.1%; with Trypanosoma cruzi [20], 21%; in the assay on Trypanosoma cruzi [3] it was 93.3%; in the assay on Trypanosoma cruzi [4], 89%. Further, the Activity in the assay with Trypanosoma cruzi [21] turned out to be 19%; in the assay on Trypanosoma cruzi [5] it was 160%; in the assay on Trypanosoma cruzi [29], 6.7%; in the assay with Trypanosoma cruzi [24], 33.9%; in the assay with Trypanosoma cruzi [8], 38%; in the assay on Trypanosoma cruzi [9], 40%. The Activity in the assay on Trypanosoma cruzi [26] turned out to be 8%. Moreover, the MIC with Trypanosoma cruzi [2] and against Trypanosoma cruzi [7] was 10 µM (≈ 3.41 µg/mL) throughout. Moreover, the IC50 in the assay on Trypanosoma cruzi [6] is 3.7 µM; with Vero, 11.1 µM; in the assay with Trypanosoma cruzi [10] it was 0.65 µM.
`C=CCOC(=O)N/N=C/c1ccc([N+](=O)[O-])o1` displayed a minimal inhibitory concentration (MIC) with Trypanosoma cruzi [2] of 30 µM (≈ 7.18 µg/mL). In addition, the Activity in the assay on Trypanosoma cruzi [11] was 7%; in the assay on Trypanosoma cruzi [13], 6.8%; with Trypanosoma cruzi [14] it was 53.1%; in the assay on Trypanosoma cruzi [16], 33.1%.
For the compound `O=C(N/N=C/c1ccc([N+](=O)[O-])o1)OC/C=C/c1ccccc1`, the Activity with Trypanosoma cruzi [1] was 52.5%; in the assay on Trypanosoma cruzi [30] it was 5%; with Trypanosoma cruzi [11], 5.8%; in the assay on Trypanosoma cruzi [3], 16%; in the assay on Trypanosoma cruzi [31] it was 2.3%; in the assay with Trypanosoma cruzi [23] it was 10.4%. Besides, the Activity came out at 7.8% in the assay with Trypanosoma cruzi [13], 22% with Trypanosoma cruzi [14] and 64.4% in the assay on Trypanosoma cruzi [16]. Further, in the assay on Trypanosoma cruzi [2], the MIC turned out to be 30 µM (≈ 9.46 µg/mL).
